Measured values taken from PubChem BioAssay (NCI).
Where “and” joins values, the source holds several entries; their conditions need not be identical. Equal values may be shown once.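 Assay format: 96-well plates, 48-hour exposure. GI50 marks 50% less growth. At the TGI there is no net growth.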

Legend:
Test in all cases: inhibition of tumour cell growth, NCI panel, 48 h
K-562 leukemia = tested on: K-562 leukemia
OVCAR-5 ovarian = tested on: OVCAR-5 ovarian
HOP-92 NSCLC = tested on: HOP-92 NSCLC
SF-295 CNS = tested on: SF-295 CNS
BT-549 breast = tested on: BT-549 breast
NCI/ADR-RES ovarian = tested on: NCI/ADR-RES ovarian
CAKI-1 renal = tested on: CAKI-1 renal
OVCAR-8 ovarian = tested on: OVCAR-8 ovarian
SNB-75 CNS = tested on: SNB-75 CNS
TK-10 renal = tested on: TK-10 renal

Row | Structure (SMILES) | GI50 (K-562 leukemia) [µM] | TGI (K-562 leukemia) [µM] | GI50 (OVCAR-5 ovarian) [µM] | TGI (OVCAR-5 ovarian) [µM] | GI50 (HOP-92 NSCLC) | TGI (HOP-92 NSCLC) | GI50 (SF-295 CNS) | TGI (SF-295 CNS) | GI50 (BT-549 breast) | TGI (BT-549 breast) | GI50 (NCI/ADR-RES ovarian) [µM] | TGI (NCI/ADR-RES ovarian) [µM] | GI50 (CAKI-1 renal) [µM] | TGI (CAKI-1 renal) [µM] | GI50 (OVCAR-8 ovarian) | TGI (OVCAR-8 ovarian) [µM] | GI50 (SNB-75 CNS) | TGI (SNB-75 CNS) | GI50 (TK-10 renal) | TGI (TK-10 renal)
1 | CCOc1ccc2nc(SCc3nc4n(n3)S(=O)(=O)c3ccccc3N4C)sc2c1 | 71.2 | > 100 | > 100 | > 100 | 20.7 µM | 58.5 µM | > 100 µM | > 100 µM | 59.3 µM | > 100 µM | > 100 | > 100 | > 100 | > 100 | 73 µM | > 100 | 28.8 µM | 83.8 µM |  | 
2 | COc1cc(NC(N)=NCCC(C)(C)Oc2ccc(C(F)(F)F)cc2)ncc1C#N |  |  | 1.88 | 3.36 | 1.38 µM | 2.8 µM | 1.57 µM | 2.99 µM | 1.81 µM | 3.38 µM | 1.66 | 3.24 | 1.55 | 2.9 | 1.79 µM | 3.54 | 1.55 µM | 3.02 µM | 1.54 µM | 2.91 µM
3 | CC(C)=CCc1c(OC(=O)c2c(C)cc(O)cc2O)cc(CO)c(CO)c1O |  | 32.9 |  | 43.1 |  | 52.3 µM |  | 37.5 µM |  | 41 µM |  | 85.6 |  | 20.5 |  | 63.9 |  | 40.7 µM |  | 77.9 µM
4 | O=C1c2ccccc2-c2c1c1c(=O)[nH]c3ccccc3c1n2Cc1ccccc1 | > 100 | > 100 | 49.5 | > 100 | 15.8 µM | 51.5 µM | 17.2 µM | 40.9 µM | 19.5 µM | 34.7 µM | 52.6 | > 100 | 33.5 | > 100 | 51 µM | > 100 | 15.6 µM | 30.1 µM | 15.1 µM | 29.2 µM
5 | COc1cc(C#Cc2ccc(=O)oc2C#Cc2ccccc2)cc(OC)c1OC | 3.67 | > 40.4 | 5.74 | 12.1 | 5.13 µM | 12.4 µM | 18.3 µM | 38.9 µM | 1.97 µM | 4.21 µM | 6.39 | 18.9 | 2.12 | 4.26 | 2.93 µM | 10.3 | 2.7 µM | 7.62 µM | 4.57 µM | 13 µM
6 | COc1cc(/C=C2\C(=O)Nc3cc(C)c(O)cc32)cc(OC)c1OC | 1.67 | 10.4 | 13.5 | 30.4 | 5.61 µM | > 100 µM | 6.03 µM | 26.3 µM | 1.86 µM | 6.26 µM | 5.01 | 48.1 | 2.98 | 9.66 | 7.33 µM | > 67.3 | 3.03 µM | > 30 µM | 12.8 µM | 40.4 µM
7 | CCCC(=O)NC1=C(Cl)C(=O)c2ccccc2C1=O |  | 7.43 |  | 15.4 |  | 3.22 µM |  | 17.1 µM |  | 16.7 µM |  | > 23.2 |  | 10.1 |  | 34.8 |  | 20.2 µM |  | 15.6 µM
8 | CCOC(=O)c1sc(-c2ccc(OS(=O)(=O)c3ccc(Br)s3)c(C=O)c2)nc1C | 3.17 | > 100 | 10 | 26.3 | 2.08 µM | 6.87 µM | 5.08 µM | 18.4 µM | 2.51 µM | 6.57 µM | 2.96 | 12.9 | 2.86 | 14.5 | 3.26 µM | 16.5 | 1.6 µM | 6.7 µM | 2.83 µM | 8.96 µM
9 | Cn1cc(C2=C(c3cn(CCCCN)c4ccccc34)C(=O)NC2=O)c2ccccc21 | > 25 | > 25 | > 25 | > 25 |  |  |  | > 25 µM | > 25 µM | > 25 µM | > 25 | > 25 | > 25 | > 25 | > 25 µM | > 25 | > 25 µM | > 25 µM | > 25 µM | > 25 µM
10 | S=C(Nc1ccc(Br)cc1)Nc1ccc(Br)cc1 | 3.62 | > 100 | > 100 | > 100 | 2.72 µM | 9.13 µM | 2.99 µM | > 100 µM | 44.2 µM | > 100 µM | 4.32 | > 100 | 4 | > 100 | 18.2 µM | > 100 | 98.7 µM | > 100 µM | 5.38 µM | > 100 µM
11 | Fc1ccc2[nH]cc(-c3nonc3-c3c[nH]c4ccc(Br)cc34)c2c1 | 2.22 | 7.38 | 2.15 | 5.8 | 1.97 µM | 5.52 µM | 1.94 µM | 4.2 µM | 3.38 µM | 15 µM | 2.87 | 10.1 | 2.89 | 13.8 | 3.38 µM | 17.5 | 1.89 µM | 16.9 µM | 3.04 µM | 6.63 µM
12 | O=c1c(Oc2ccc(F)cc2F)cc2cnc(NC3CCOCC3)nc2n1CCCO | > 25 | > 25 | > 25 | > 25 | > 25 µM | > 25 µM | > 25 µM | > 25 µM | > 25 µM | > 25 µM | > 25 | > 25 | > 25 | > 25 | > 25 µM | > 25 | 24.4 µM | > 25 µM | > 25 µM | > 25 µM
13 | Cc1cc(=O)oc2cc(OC(=O)N(C)C)c(Cl)cc12 |  | > 100 |  | > 100 |  | > 100 µM |  |  |  | > 100 µM |  | > 100 |  | > 100 |  | > 100 |  |  |  | > 100 µM
14 | CC(=O)OCC1OC(n2c(-c3ccc(Cl)cc3)ccc(C#N)c2=S)C(OC(C)=O)C(OC(C)=O)C1OC(C)=O (stereo unspecified) |  | > 100 |  | > 100 | 3.96 µM and 22.2 µM | 18.8 µM and > 100 µM | 13.8 µM and > 100 µM | 35 µM and > 100 µM | 15.9 µM and 35 µM | 38.9 µM and > 100 µM |  | > 100 | > 100 | > 100 | 16.4 µM and 34.9 µM | > 100 | 5.05 µM and 26.9 µM | 14 µM and 82.9 µM | 29.4 µM and 62.3 µM | 64.1 µM and > 100 µM
15 | CCCNNC(=O)/C=C/c1ccc(CNCCc2c(C)[nH]c3ccccc23)cc1 | 0.0111 | 3.78 | 0.0116 | 0.191 | 0.00693 µM | 0.0744 µM | 0.0471 µM | 0.171 µM | 0.28 µM | 4.71 µM | 0.169 | 2.29 | 0.0369 | 0.123 | 0.0149 µM | 3.92 | 0.0753 µM | 2.94 µM | 0.00506 µM | 0.133 µM
16 | COc1ccc(S(=O)(=O)N2CC(C)(C)CN(S(=O)(=O)c3ccc(OC)cc3)C2C(=O)NO)cc1 | > 20 | > 20 | > 20 | > 20 | 8.14 µM | > 20 µM | > 20 µM | > 20 µM | > 20 µM | > 20 µM | > 20 | > 20 | > 14.1 | > 20 | > 20 µM | > 20 | > 20 µM | > 20 µM | 19.5 µM | > 20 µM
17 | COc1ccc(C(=O)/C=C/c2ccc(C)cc2)cc1OC | 8.31 | 50.2 | 16.1 | 29.6 | 12.6 µM | 27 µM | 12.1 µM | 28.4 µM | 14.9 µM | 51.5 µM | 11.7 | 28.3 | 18.1 | 52.8 | 11.8 µM | 27.6 | 8.93 µM | 21.3 µM | 16.4 µM | 37.7 µM
18 | CCC[CH2][Sn]([CH2]CCC)([CH2]CCC)[O]c1ccc(Cl)cc1Cl | 0.12 | 0.408 | 0.14 | 0.298 | 0.0733 µM | 0.384 µM | 0.15 µM | 0.307 µM | 0.154 µM | 0.315 µM | 0.141 | 0.312 | 0.0878 | 0.258 | 0.163 µM | 0.354 | 0.152 µM | 0.445 µM | 0.215 µM | 0.61 µM
19 | Oc1[nH]c2ccccc2c1N=Nc1ccccn1 |  | > 100 |  | > 100 |  |  |  | > 100 µM |  | > 100 µM |  | 28 |  | > 100 |  | 26.3 |  | 86.6 µM |  | 53.7 µM
20 | C#CCOc1cccc(-c2ncnc3cc(NC(=O)CCl)ccc23)c1 | 0.0612 |  | 1.19 | 2.86 | 1.42 µM | 3.32 µM | 2.44 µM | 9.25 µM | 0.849 µM | 2.31 µM | 1.05 | 14.9 | 0.2 | 1.76 | 0.168 µM | 6.59 | 1.15 µM | 9.48 µM | 1.26 µM | 2.81 µM
21 | Cc1cc(S(=O)(=O)Nc2nc3cscc3c(=O)n2Cc2ccccc2)c(S)cc1Cl | 74.1 | > 100 | 87.1 | > 100 | > 100 µM | > 100 µM | 23.7 µM | > 100 µM | 81.1 µM | > 100 µM | 53.4 | > 100 | 45.4 | > 100 | 55.7 µM | > 100 | > 100 µM | > 100 µM | 35 µM | > 100 µM
22 | COc1ccc(-c2cc(=O)c3ccc(C)nc3[nH]2)cc1 |  | > 100 |  | > 100 |  | > 100 µM | 88.3 µM | > 100 µM |  | > 100 µM |  | > 100 |  | > 100 |  | > 100 |  |  |  | > 100 µM
23 | Nc1ccc(C2=NN(c3ccccc3)C(c3ccc(Cl)cc3)C2)cc1 (stereo unspecified) |  |  | 10.6 | 24.8 | 2.61 µM | 17.3 µM | 9 µM | 24.9 µM | 2.21 µM | 5.32 µM | 3.64 | 19.4 | 3.21 | 14 | 3.15 µM | 13.2 | 3.76 µM | 16.2 µM | 2.13 µM | 6.16 µM
24 | COc1cc(-c2cc3ncccc3c3nc(N)c4cccnc4c23)cc(OC)c1OC | 0.169 | 14.5 | 4.98 | > 100 | 9.17 µM | > 100 µM | 0.308 µM | 15.5 µM | 0.285 µM | 1.88 µM | 0.492 | 23.4 | 0.4 | 22.6 | 0.756 µM | 46 |  |  | 1.15 µM | 9.29 µM
25 | CCN(Cc1cccc(F)c1)c1ccc(CO)c(Cl)c1 | 3.54 | > 100 | 0.148 | 0.605 | 1.86 µM | 20.8 µM | 1.21 µM | > 45.3 µM | 11 µM | 28.3 µM | 15.9 | 53.6 | 0.907 | > 36.3 | 17.3 µM | > 60.9 | 12 µM | 54 µM |  | 
26 | C=C(c1ccc2nc(NC(=O)OC)[nH]c2c1)c1cccs1 |  | > 35.5 |  | > 100 |  | > 31 µM |  | 0.934 µM |  | > 100 µM |  | 0.87 |  | 8.27 |  | > 36.4 |  |  |  | > 100 µM
27 | Cc1sc2nc(-c3ccncc3)c(/C=N/N=C(N)N)n2c1C | 34.7 | > 100 | 74.6 | > 100 |  |  | 24.9 µM | 72.7 µM | 73.5 µM | > 100 µM | > 100 | > 100 | 40.8 | > 100 |  |  | 89.8 µM | > 100 µM | > 100 µM | > 100 µM
28 | Cc1nn(-c2nc3ccccc3[nH]2)c(N)c1-c1ccc(Cl)cc1 | 3.55 | > 100 | 46.7 | > 100 | 3.28 µM | 75.4 µM |  |  | 12.9 µM | > 100 µM | 4.84 | > 100 | 8.82 | > 100 | 4.36 µM | > 100 |  |  | 4.51 µM | > 100 µM
